This experiment has as its system cancer stem cell-like cells viability, luminescence. Put plainly: PubChem AID 449748.

Records with an inconclusive call do not appear.

A word on the AC50: it is the concentration giving half of the maximal activity seen. Take `O=[N+]([O-])c1ccc(Cl)c([N+](=O)[O-])c1`: the half-maximal activity concentration (AC50) was 4.77 µM.

The values are drawn from PubChem BioAssay AID449748 (Broad Institute, 2010).
